Measurements taken from US20230024096A1, “BIFUNCTIONAL COMPOUNDS FOR THE TREATMENT OF CANCER” (Hoffmann-La Roche Inc., priority 2019, published 2023).

Target: T1, SMARCA2 (Homo sapiens, UniProt P51531)
T1 construct: endogenous in cells; host or cells: HT1080 (CRISPR HiBiT knock-in clone, generated in house)
Assay: SMARCA2 HiBiT degradation assay (cellular)
Type: cell-based
Conditions: table head names A549; for DC50: 6 h incubation, HiBiT-tagged SMARCA2, luminescence read-out, read-out: HiBit A549 SMARCA2 IP (nM) 6 h; for Emax: A549, 6 h incubation, Emax = amount of residual protein remaining in the cell following compound treatment

T1 sequence (P51531 whole entry): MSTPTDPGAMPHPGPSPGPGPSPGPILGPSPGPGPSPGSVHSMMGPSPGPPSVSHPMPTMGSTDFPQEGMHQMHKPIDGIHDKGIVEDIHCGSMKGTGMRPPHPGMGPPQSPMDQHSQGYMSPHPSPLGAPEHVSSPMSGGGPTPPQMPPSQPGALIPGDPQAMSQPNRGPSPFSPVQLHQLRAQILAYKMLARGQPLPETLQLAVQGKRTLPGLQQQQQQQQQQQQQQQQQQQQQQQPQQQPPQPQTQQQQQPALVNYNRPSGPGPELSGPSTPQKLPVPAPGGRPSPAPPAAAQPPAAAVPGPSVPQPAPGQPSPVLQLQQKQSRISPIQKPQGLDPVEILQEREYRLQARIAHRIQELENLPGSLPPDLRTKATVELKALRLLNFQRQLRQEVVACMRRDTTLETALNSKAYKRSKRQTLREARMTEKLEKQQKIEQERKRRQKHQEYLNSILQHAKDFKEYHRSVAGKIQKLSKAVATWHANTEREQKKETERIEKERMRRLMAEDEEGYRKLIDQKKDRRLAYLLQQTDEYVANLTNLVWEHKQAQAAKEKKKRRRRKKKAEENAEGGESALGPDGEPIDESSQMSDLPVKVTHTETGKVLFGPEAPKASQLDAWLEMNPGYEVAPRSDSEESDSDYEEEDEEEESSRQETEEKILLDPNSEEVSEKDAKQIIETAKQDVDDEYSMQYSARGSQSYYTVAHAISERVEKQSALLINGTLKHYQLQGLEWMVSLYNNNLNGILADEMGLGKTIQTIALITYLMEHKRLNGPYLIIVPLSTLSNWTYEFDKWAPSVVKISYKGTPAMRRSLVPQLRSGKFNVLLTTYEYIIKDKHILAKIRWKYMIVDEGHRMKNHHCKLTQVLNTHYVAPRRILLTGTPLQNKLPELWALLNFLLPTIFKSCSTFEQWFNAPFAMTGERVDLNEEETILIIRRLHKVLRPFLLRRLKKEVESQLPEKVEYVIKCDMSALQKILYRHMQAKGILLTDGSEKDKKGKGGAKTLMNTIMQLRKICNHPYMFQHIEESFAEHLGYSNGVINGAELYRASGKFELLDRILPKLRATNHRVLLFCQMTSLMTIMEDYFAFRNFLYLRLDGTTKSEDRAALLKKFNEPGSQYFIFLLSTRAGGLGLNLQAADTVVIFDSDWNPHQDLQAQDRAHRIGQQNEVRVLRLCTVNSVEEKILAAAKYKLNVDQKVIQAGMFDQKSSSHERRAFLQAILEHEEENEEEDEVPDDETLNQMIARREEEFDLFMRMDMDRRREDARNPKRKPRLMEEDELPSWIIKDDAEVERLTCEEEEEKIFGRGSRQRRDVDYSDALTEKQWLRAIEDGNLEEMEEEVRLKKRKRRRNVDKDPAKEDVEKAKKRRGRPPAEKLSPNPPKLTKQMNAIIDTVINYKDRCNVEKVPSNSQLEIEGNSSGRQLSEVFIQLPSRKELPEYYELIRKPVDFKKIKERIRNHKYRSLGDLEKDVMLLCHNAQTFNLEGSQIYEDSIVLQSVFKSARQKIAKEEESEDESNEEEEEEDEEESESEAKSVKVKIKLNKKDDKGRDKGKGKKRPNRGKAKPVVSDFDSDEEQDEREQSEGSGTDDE

Nc1nnc(-c2ccccc2O)cc1N1CCC(C(=O)N2CCC3(CC2)CN(C(=O)C2CCN(c4ccc5c(c4)C(=O)N(C4CCC(=O)NC4=O)C5=O)CC2)CCO3)(c2ccccc2)CC1 (centres unmarked) [Example 167, 5-(4-(9-(1-(3-amino-6-(2-hydroxyphenyl)pyridazin-4-yl)-4-phenylpiperidine-4-carbonyl)-1-oxa-4,9-diazaspiro[5.5]undecane-4-carbonyl)piperidin-1-yl)-2-(2,6-dioxopiperidin-3-yl)isoindoline-1,3-dione]
DC50: 54 nM
Emax: 43%

Nc1nnc(-c2ccccc2O)cc1N1CCC(C(=O)NCC2CCN(CC3CCN(c4ccc5c(c4)C(=O)N(C4CCC(=O)NC4=O)C5=O)CC3)CC2)(c2ccccc2)C1 (stereo not drawn) [Example 124, 1-[3-amino-6-(2-hydroxyphenyl)pyridazin-4-yl]-N-[[1-[[l-[2-(2,6-dioxo-3-piperidyl)-1,3-dioxo-isoindolin-5-yl]-4-piperidyl]methyl]-4-piperidyl]methyl]-3-phenyl-pyrrolidine-3-carboxamide]
DC50: 272 nM
Emax: 63%

Nc1nnc(-c2ccccc2O)cc1N1CC2CCC(C1)N2c1cccc(OC2CCC(CC(=O)N3CC4(C3)CN(C(=O)C3CCN(c5ccc6c(c5)C(=O)N(C5CCC(=O)NC5=O)C6=O)CC3)C4)CC2)c1 (racemic) [Example 31, rac-5-[4-[6-[2-[4-[3-[3-[3-amino-6-(2-hydroxyphenyl)pyridazin-4-yl]-3,8-diazabicyclo[3.2.1]octan-8-yl]phenoxy]cyclohexyl]acetyl]-2,6-diazaspiro[3.3]heptane-2-carbonyl]-1-piperidyl]-2-(2,6-dioxo-3-piperidyl)isoindoline-1,3-dione]
DC50: 383 nM
Emax: 55%

Nc1nnc(-c2ccccc2O)cc1OCC(CNC(=O)C1CCN(c2ccc3c(c2)C(=O)N(C2CCC(=O)NC2=O)C3=O)CC1)c1ccccc1 (racemic) [Example 97, N-[3-[3-amino-6-(2-hydroxyphenyl)pyridazin-4-yl]oxy-2-phenyl-propyl]-1-[2-(2,6-dioxo-3-piperidyl)-1,3-dioxo-isoindolin-5-yl]piperidine-4-carboxamide (racemic mixture of diastereomers)]
DC50: 659 nM
Emax: 30%

Nc1nnc(-c2ccccc2O)cc1N1CCC(NC(=O)CC2CCN(C(=O)C3CCN(c4ccc5c(c4)C(=O)N(C4CCC(=O)NC4=O)C5=O)CC3)CC2)(c2ccccc2)CC1 (centres unmarked) [Example 184, N-[1-[3-amino-6-(2-hydroxyphenyl)pyridazin-4-yl]-4-phenyl-4-piperidyl]-2-[1-[1-[2-(2,6-dioxo-3-piperidyl)-1,3-dioxo-isoindolin-5-yl]piperidine-4-carbonyl]-4-piperidyl]acetamide]
DC50: 494 nM
Emax: 65%

Nc1nnc(-c2ccccc2O)cc1OC1CCCN(c2ccc(OCCN3CCN(C(=O)CCCCCCCCn4cc(CNc5cccc6c5C(=O)N(C5CCC(=O)NC5=O)C6=O)nn4)CC3)cc2)C1 (centres unmarked) [Example 27, 4-[[1-[9-[4-[2-[4-[3-[3-amino-6-(2-hydroxyphenyl)pyridazin-4-yl]oxy-1-piperidyl]phenoxy]ethyl]piperazin-1-yl]-9-oxo-nonyl]triazol-4-yl]methylamino]-2-(2,6-dioxo-3-piperidyl)isoindoline-1,3-dione]
DC50: 333 nM
Emax: 57%

Nc1nnc(-c2ccccc2O)cc1OC1CCCN(c2ccc(N3CCN(C(=O)CCCCCCCCCn4cc(CNc5cccc6c5C(=O)N(C5CCC(=O)NC5=O)C6=O)nn4)CC3)cc2)C1 (centres unmarked) [Example 28, 4-[[1-[10-[4-[4-[3-[3-amino-6-(2-hydroxyphenyl)pyridazin-4-yl]oxy-1-piperidyl]phenyl]piperazin-1-yl]-10-oxo-decyl]triazol-4-yl]methylamino]-2-(2,6-dioxo-3-piperidyl)isoindoline-1,3-dione]
DC50: 91 nM
Emax: 48%

Nc1nnc(-c2cc(F)cc(F)c2O)cc1N1CCC(CNC(=O)CCCN2CCC(c3ccc(OC4CCC(=O)NC4=O)cc3)CC2)(c2ccccc2)CC1 (centres unmarked) [Example 182, N-[[1-[3-amino-6-(3,5-difluoro-2-hydroxy-phenyl)pyridazin-4-yl]-4-phenyl-4-piperidyl]methyl]-4-[4-[4-[(2,6-dioxo-3-piperidyl)oxy]phenyl]-1-piperidyl]butanamide]
DC50: 103 nM
Emax: 47%

Nc1nnc(-c2ccccc2O)cc1N1CC2CCC(C1)N2c1cccc(OCCN2CCN(C(=O)N3CCC(c4ccc(NC5CCC(=O)NC5=O)cc4)CC3)CC2)c1 (racemic) [Example 80, rac-3-[4-[1-[4-[2-[3-[3-[3-amino-6-(2-hydroxyphenyl)pyridazin-4-yl]-3,8-diazabicyclo[3.2.1]octan-8-yl]phenoxy]ethyl]piperazine-1-carbonyl]-4-piperidyl]anilino]piperidine-2,6-dione]
DC50: 11 nM
Emax: 51%

Nc1nnc(-c2ccccc2O)cc1N1CC(Oc2cccc(N3CCN(C(=O)C4CCN(c5ccc6c(c5)C(=O)N(C5CCC(=O)NC5=O)C6=O)CC4)CC3)c2)C1 (racemic) [Example 152, rac-5-[4-[4-[3-[1-[3-amino-6-(2-hydroxyphenyl)pyridazin-4-yl]azetidin-3-yl]oxyphenyl]piperazine-1-carbonyl]-1-piperidyl]-2-(2,6-dioxo-3-piperidyl)isoindoline-1,3-dione]
DC50: 5 nM
Emax: 42%

Nc1nnc(-c2ccccc2O)cc1N1CCC(CNC(=O)C2CCN(c3cccc4c3C(=O)N(C3CCC(=O)NC3=O)C4=O)CC2)(c2ccccc2)CC1 (centres unmarked) [Example 71, N-[[1-[3-amino-6-(2-hydroxyphenyl)pyridazin-4-yl]-4-phenyl-4-piperidyl]methyl]-1-[2-(2,6-dioxo-3-piperidyl)-1,3-dioxo-isoindolin-4-yl]piperidine-4-carboxamide]
DC50: 326 nM
Emax: 46%

CC(Oc1cccc2c1C(=O)N(C1CCC(=O)NC1=O)C2=O)c1cn(CCCCCCOCCN2CCN(c3ccc(N4CCC[C@H](Oc5cc(-c6ccccc6O)nnc5N)C4)cc3)CC2)nn1 (mixture of isomers) [Example 202, 2-(2,6-dioxo-3-piperidyl)-4-[1-[1-[6-[2-[4-[4-[rac-(3S)-3-[3-amino-6-(2-hydroxyphenyl)pyridazin-4-yl]oxy-1-piperidyl]phenyl]piperazin-1-yl]ethoxy]hexyl]triazol-4-yl]ethoxy]isoindoline-1,3-dione]
DC50: 107 nM
Emax: 44%

Nc1nnc(-c2ccccc2O)cc1N1CCC(C(=O)N2CC3(CCN(CCC4CCN(c5ccc6c(c5)C(=O)N(C5CCC(=O)NC5=O)C6=O)CC4)C3)C2)(c2ccccc2)CC1 (centres unmarked) [Example 191, 5-(4-(2-(2-(1-(3-amino-6-(2-hydroxyphenyl)pyridazin-4-yl)-4-phenylpiperidine-4-carbonyl)-2,6-diazaspiro[3.4]octan-6-yl)ethyl)piperidin-1-yl)-2-(2,6-dioxopiperidin-3-yl)isoindoline-1,3-dione]
DC50: 30 nM
Emax: 37%

Nc1nnc(-c2ccccc2O)cc1N1CCC(C(=O)N2CC3(CCN(C(=O)CN4CCC(c5ccc(NC6CCC(=O)NC6=O)cc5)CC4)CC3)C2)(c2ccccc2)CC1 (centres unmarked) [Example 165, 3-((4-(1-(2-(2-(1-(3-amino-6-(2-hydroxyphenyl)pyridazin-4-yl)-4-phenylpiperidine-4-carbonyl)-2,7-diazaspiro[3.5]nonan-7-yl)-2-oxoethyl)piperidin-4-yl)phenyl)amino)piperidine-2,6-dione]
DC50: 28 nM
Emax: 38%

Nc1nnc(-c2ccccc2O)cc1N1CCC(C(=O)N2CC3(CCN(C(=O)C4CCN(c5ccc6c(c5)C(=O)N(C5CCC(=O)NC5=O)C6=O)CC4)C3)C2)(c2ccccc2)CC1 (centres unmarked) [Example 186, 5-(4-(2-(1-(3-amino-6-(2-hydroxyphenyl)pyridazin-4-yl)-4-phenylpiperidine-4-carbonyl)-2,6-diazaspiro[3.4]octane-6-carbonyl)piperidin-1-yl)-2-(2,6-dioxopiperidin-3-yl)isoindoline-1,3-dione]
DC50: 148 nM
Emax: 42%

Nc1nnc(-c2ccccc2O)cc1N1CCC(OCC(=O)NC2CCN(C(=O)C3CCN(c4ccc5c(c4)C(=O)N(C4CCC(=O)NC4=O)C5=O)CC3)CC2)(c2ccccc2)CC1 (centres unmarked) [Example 196, 2-[[1-[3-amino-6-(2-hydroxyphenyl)pyridazin-4-yl]-4-phenyl-4-piperidyl]oxy]-N-[1-[1-[2-(2,6-dioxo-3-piperidyl)-1,3-dioxo-isoindolin-5-yl]piperidine-4-carbonyl]-4-piperidyl]acetamide]
DC50: 51 nM
Emax: 65%

Nc1nnc(-c2ccccc2O)cc1N1CC2CCC(C1)N2c1cccc(OCCN2CCN(C(=O)COc3ccc4c(c3)C(=O)N(C3CCC(=O)NC3=O)C4=O)CC2)c1 (racemic) [Example 99, rac-5-[2-[4-[2-[3-[3-[3-amino-6-(2-hydroxyphenyl)pyridazin-4-yl]-3,8-diazabicyclo[3.2.1]octan-8-yl]phenoxy]ethyl]piperazin-1-yl]-2-oxo-ethoxy]-2-(2,6-dioxo-3-piperidyl)isoindoline-1,3-dione]
DC50: 31 nM
Emax: 51%

Nc1nnc(-c2ccccc2O)cc1N1CCC(NC(=O)CN2CCC(c3ccc(OC4CCC(=O)NC4=O)cc3)CC2)(c2ccccc2)CC1 (centres unmarked) [Example 108, N-[1-[3-amino-6-(2-hydroxyphenyl)pyridazin-4-yl]-4-phenyl-4-piperidyl]-2-[4-[4-[(2,6-dioxo-3-piperidyl)oxy]phenyl]-1-piperidyl]acetamide]
DC50: 109 nM
Emax: 48%

Nc1nnc(-c2ccccc2O)cc1N1CC2CCC(C1)N2c1cccc(CN2CCN(C(=O)CC3CCN(c4ccc5c(c4)C(=O)N(C4CCC(=O)NC4=O)C5=O)CC3)CC2)c1 (racemic) [Example 48, rac-5-[4-[2-[4-[[3-[3-[3-Amino-6-(2-hydroxyphenyl)pyridazin-4-yl]-3,8-diazabicyclo[3.2.1]octan-8-yl]phenyl]methyl]piperazin-1-yl]-2-oxo-ethyl]-1-piperidyl]-2-(2,6-dioxo-3-piperidyl)isoindoline-1,3-dione]
DC50: 15 nM
Emax: 45%
